{
  "source": "patent US9139615B2",
  "about": "“High-affinity, dimeric inhibitors of PSD-95 as efficient neuroprotectants against ischemic brain damage and for treatment of pain” (University of Copenhagen, priority 2011, dated 2015)",
  "type_in_all_cases": "in vivo, mice",
  "key": {"motor performance": {"tested_on": "motor performance", "assay": "Rotarod test of motor performance (side effects)", "conditions": "0.1 mg/kg, at 15, 30, 45 and 60 min", "method": "Motor function was evaluated using an accelerating rotarod (MedAssociates, Inc., VT, USA). The rotarod (3.2 cm diameter) speed was increased from 4 to 40 rpm over a 300 s period with the minimum time possible to spend on the rod designated as 0 s and the maximum cut-off time set at 310 s. Each mouse was tested immediately prior to drug treatment (t=0), and again 15, 30, 45 and 60 minutes after drug treatment. When an animal fell off the rotating drum, a photobeam was automatically broken to record the amount of time spent on the rotating rod.\nMotor performance: In the rotarod test, treatment effect on motor coordination was analysed using a two-way RM ANOVA, with treatment as the independent factor and time as repeated measure. Planned comparisons procedure was used to assess treatment effects over time."}, "attention": {"tested_on": "attention", "assay": "Modified Y-maze test of attention", "conditions": "0.05 and 0.1 mg/kg", "method": "Testing was carried out in a clear Plexiglass maze composed of 2 perpendicular arms connected to a runway. The 2 arms (available for exploration) and runway were 50 cm long and 8 cm wide, surrounded by clear Plexi-glass walls 30 cm high. Each arm met at a central platform equipped with black removable partitions, enabling arms to be opened and closed as desired. The whole maze was enclosed in a triangular black Plexiglass box (1×1×1 m). The walls of this outer box surrounding each exploration arm were covered with distinct optical cues, e.g., white horizontal or vertical lines. […] The cumulative time spent in each arm was recorded during this test session by an automated video tracking system (Ethovision, Noldus). A discrimination index (DI) was calculated for each mouse, defined as the difference in time spent in the novel and the familiar arm divided by the total time spent in the novel and the familiar arm during phase 2 testing, i.e. DI=(novel−familiar)/(novel+familiar).\nCognitive data: In the social transmission of food preference test, the preference for the cued food was expressed as a discrimination index, DI=(cued−novel)/(cued+novel). In the modified Y-maze, the preference for the novel arm was expressed as a discrimination index, DI=(time in novel−time in familiar)/(time in novel+time in familiar). […]"}, "[1]": {"tested_on": "CFA-induced mechanical allodynia/hyperalgesia", "assay": "Complete Freund's adjuvant (CFA) inflammatory pain, von Frey test", "conditions": "for CFA-induced hyperalgesia: 0.1 mg/kg, given simultaneously with CFA"}, "[2]": {"tested_on": "long-term reference memory", "assay": "Social transmission of food preference (STFP) test", "conditions": "0.1 mg/kg (dose reducing hyperalgesia)", "method": "STFP was conducted in two phases. […] A minimum of 2 and a maximum of 5 licking/sniffing interactions were set as criteria for appropriate acquisition of the odour cue. […] Second phase: following a 24-hour retention interval, the observer mice were placed individually in cages containing two trays of crushed food scented with cinnamon or cocoa, respectively. The amount eaten from the cued food over the novel food is taken as an index of memory for the previously cued food. […] Yet, experiments were designed in a balanced fashion to ensure that an equal number of mice within each treatment group were cued with cinnamon and cocoa, respectively.\nCognitive data: In the social transmission of food preference test, the preference for the cued food was expressed as a discrimination index, DI=(cued−novel)/(cued+novel). In the modified Y-maze, the preference for the novel arm was expressed as a discrimination index, DI=(time in novel−time in familiar)/(time in novel+time in familiar). STFP and Y-maze data were analysed by one-way ANOVA followed by Planned Comparisons was performed to assess treatment effects on the discrimination index."}},
  "note": "“Also recorded” adds a separate entry of the source.",
  "data": [
    {"compound": "C[C@]12N[C@H](Cc3ccccc31)c1ccccc12", "note": "[MK-801]", "values": [
      {"measurement": "motor performance, time on the rotarod", "setting": "motor performance", "value": "motor deficits; also recorded: significantly decreased time on the rotarod"},
      {"measurement": "discrimination index, modified Y-maze", "setting": "attention", "value": "induced cognitive deficits; also recorded: discrimination index was reduced"},
      {"measurement": "CFA-induced hyperalgesia", "setting": "[1]; after 1 hour", "value": "significantly reversed the CFA-induced hyperalgesia"},
      {"measurement": "CFA-induced hyperalgesia", "setting": "[1]; after 24 hours", "value": "significant reversal was still observed"},
      {"measurement": "CFA-induced mechanical hyperalgesia", "setting": "[1]; administered concurrently with CFA, 1 hour and 24 hours after treatment", "value": "prevented the development of CFA-induced mechanical hyperalgesia"},
      {"measurement": "discrimination index, social transmission of food preference", "setting": "[2]", "value": "induced cognitive deficits; also recorded: significantly reduced the discrimination index"}
    ]}
  ]
}
